# How the values were obtained:
# JAK1 = JAK1 (Homo sapiens (Human), UniProt P23458); assay: Jak Biochemical HTRF Assay, JAK1; conditions: HTRF biochemical assay, GST-tagged catalytic domain; top concentration tested […]; read-out: JAK1 IC50
# From the text: (§1) Jak Biochemical HTRF Assay Protocol
# (§2) Subsequent reagent additions employed an Agilent Bravo.
# JAK2 = JAK2 (Homo sapiens (Human), UniProt O60674); assay: Jak Biochemical HTRF Assay, JAK2; conditions: HTRF biochemical assay, GST-tagged catalytic domain; top concentration tested […]
# Sequence of JAK2 (O60674 849-1124): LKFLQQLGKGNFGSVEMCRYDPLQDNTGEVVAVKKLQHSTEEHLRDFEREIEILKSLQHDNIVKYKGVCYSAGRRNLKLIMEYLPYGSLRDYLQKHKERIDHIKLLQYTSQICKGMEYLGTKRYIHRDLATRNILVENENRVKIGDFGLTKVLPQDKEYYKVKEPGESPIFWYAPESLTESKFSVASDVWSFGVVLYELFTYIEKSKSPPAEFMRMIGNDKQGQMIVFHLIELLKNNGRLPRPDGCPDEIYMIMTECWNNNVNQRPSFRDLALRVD
# From the text: as §1, §2
# Sequence of JAK1 (P23458 875-1153): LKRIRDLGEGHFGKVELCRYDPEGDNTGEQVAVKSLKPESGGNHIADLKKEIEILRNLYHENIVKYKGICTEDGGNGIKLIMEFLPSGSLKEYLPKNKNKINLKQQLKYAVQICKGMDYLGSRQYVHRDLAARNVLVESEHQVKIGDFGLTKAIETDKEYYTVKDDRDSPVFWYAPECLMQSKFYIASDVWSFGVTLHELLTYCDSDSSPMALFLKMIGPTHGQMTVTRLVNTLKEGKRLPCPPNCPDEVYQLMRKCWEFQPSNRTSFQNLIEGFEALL
Compound,IC50 (JAK1) [nM],IC50 (JAK2) [nM]
"CN(C)CC(=O)N1CCC(CC#N)(n2cc(C(N)=O)c(Nc3ccccc3)n2)CC1 [Example 34-5, 1-[4-(cyanomethyl)-1-(N,N-dimethylglycyl)piperidin-4-yl]-3-(phenylamino)-1H-pyrazole-4-carboxamide]",13,318
"N#CCC1(n2cc(C(N)=O)c(Nc3ccccc3)n2)CCN(C(=O)C2CCCO2)CC1 (stereo not shown) [Example 34-6, 1-[4-(cyanomethyl)-1-(tetrahydrofuran-2-ylcarbonyl)piperidin-4-yl]-3-(phenylamino)-1H-pyrazole-4-carboxamide]",5,107
"N#CCC1(n2cc(C(N)=O)c(Nc3ccccc3)n2)CCN(C(=O)c2cccnc2)CC1 [Example 34-8, 1-[4-(cyanomethyl)-1-(pyridin-3-ylcarbonyl)piperidin-4-yl]-3-(phenylamino)-1H-pyrazole-4-carboxamide]",14,191
"N#CCC1(n2cc(C(N)=O)c(Nc3ccccc3)n2)CCN(C(=O)C2CCCCC2)CC1 [Example 34-13, 1-[4-(cyanomethyl)-1-(cyclohexylcarbonyl)piperidin-4-yl]-3-(phenylamino)-1H-pyrazole-4-carboxamide]",2,44
"N#CCC1(n2cc(C(N)=O)c(Nc3ccccc3)n2)CCN(C(=O)c2ccsc2)CC1 [Example 34-16, 1-[4-(cyanomethyl)-1-(thiophen-3-ylcarbonyl)piperidin-4-yl]-3-(phenylamino)-1H-pyrazole-4-carboxamide]",2,35
"N#CCC1(n2cc(C(N)=O)c(Nc3ccccc3)n2)CCN(C(=O)/C=C/c2cccnc2)CC1 [Example 34-17, 1-{4-(cyanomethyl)-1-[(2E)-3-pyridin-3-ylprop-2-enoyl]piperidin-4-yl}-3-(phenylamino)-1H-pyrazole-4-carboxamide]",10,158
"N#CCC1(n2cc(C(N)=O)c(Nc3ccccc3)n2)CCN(C(=O)c2cccc3ccccc23)CC1 [Example 34-25, 1-[4-(cyanomethyl)-1-(naphthalene-1-ylcarbonyl)piperidin-4-yl]-3-(phenylamino)-1H-pyrazole-4-carboxamide]",28,350
"Cn1c(C(=O)N2CCC(CC#N)(n3cc(C(N)=O)c(Nc4ccccc4)n3)CC2)cc2ccccc21 [Example 34-26, 1-{4-(cyanomethyl)-1-[(1-methyl-1H-indol-2-yl)carbonyl]piperidin-4-yl}-3-(phenylamino)-1H-pyrazole-4-carboxamide]",10,238
"N#CCC1(n2cc(C(N)=O)c(Nc3ccccc3)n2)CCN(C(=O)c2cccc(N3CCOCC3)c2)CC1 [Example 34-28, 1-(4-(cyanomethyl)-1-[(3-morpholin-4-ylphenyl)carbonyl]piperidin-4-yl}-3-(phenylamino)-1H-pyrazole-4-carboxamide]",92,1050
"N#CCC1(n2cc(C(N)=O)c(Nc3ccccc3)n2)CCN(C(=O)c2ccccc2-c2ccccc2)CC1 [Example 34-29, 1-[1-(biphenyl-2-ylcarbonyl)-4-(cyanomethyl)piperidin-4-yl]-3-(phenylamino)-1H-pyrazole-4-carboxamide]",387,1480

# The remaining lines, values ahead:
IC50 (JAK1) [nM],IC50 (JAK2) [nM],Compound
6,94,"N#CCC1(n2cc(C(N)=O)c(Nc3ccccc3)n2)CCN(C(=O)c2ccccc2)CC1 [Example 34-7, 1-[4-(cyanomethyl)-1-(phenylcarbonyl)piperidin-4-yl]-3-(phenylamino)-1H-pyrazole-4-carboxamide]"
20,318,"N#CCC1(n2cc(C(N)=O)c(Nc3ccccc3)n2)CCN(C(=O)c2ccncc2)CC1 [Example 34-10, 1-[4-(cyanomethyl)-1-(pyridin-4-ylcarbonyl)piperidin-4-yl]-3-(phenylamino)-1H-pyrazole-4-carboxamide]"
15,195,"Cc1cc(C(=O)N2CCC(CC#N)(n3cc(C(N)=O)c(Nc4ccccc4)n3)CC2)no1 [Example 34-12, 1-{4-(cyanomethyl)-1-[(5-methylisoxazol-3-yl)carbonyl]piperidin-4-yl}-3-(phenylamino)-1H-pyrazole-4-carboxamide]"
0.3,8,"N#CCC1(n2cc(C(N)=O)c(Nc3ccccc3)n2)CCN(C(=O)c2cccs2)CC1 [Example 34-14, 1-[4-(cyanomethyl)-1-(thiophen-2-ylcarbonyl)piperidin-4-yl]-3-(phenylamino)-1H-pyrazole-4-carboxamide]"
5,194,"N#CCC1(n2cc(C(N)=O)c(Nc3ccccc3)n2)CCN(C(=O)CN2CCCC2=O)CC1 [Example 34-15, 1-{4-(cyanomethyl)-1-[(2-oxopyrrolidin-1-yl)acetyl]piperidin-4-yl}-3-(phenylamino)-1H-pyrazole-4-carboxamide]"
8,137,"COc1ccc(C(=O)N2CCC(CC#N)(n3cc(C(N)=O)c(Nc4ccccc4)n3)CC2)cc1 [Example 34-18, 1-{4-(cyanomethyl)-1-[(4-methoxyphenyl)carbonyl]piperidin-4-yl}-3-(phenylamino)-1H-pyrazole-4-carboxamide]"
11,184,"N#CCC1(n2cc(C(N)=O)c(Nc3ccccc3)n2)CCN(C(=O)c2ccc(Cl)cc2)CC1 [Example 34-19, 1-{1-[(4-chlorophenyl)carbonyl]-4-(cyanomethyl)piperidin-4-yl}-3-(phenylamino)-1H-pyrazole-4-carboxamide]"
13,115,"N#CCC1(n2cc(C(N)=O)c(Nc3ccccc3)n2)CCN(C(=O)c2ccccc2Cl)CC1 [Example 34-20, 1-{1-[(2-chlorophenyl)carbonyl]-4-(cyanomethyl)piperidin-4-yl}-3-(phenylamino)-1H-pyrazole-4-carboxamide]"
4,63,"N#CCC1(n2cc(C(N)=O)c(Nc3ccccc3)n2)CCN(C(=O)c2cccc(Cl)c2)CC1 [Example 34-21, l-{l-[(3-chlorophenyl)carbonyl]-4-(cyanomethyl)piperidin-4-yl}-3-(phenylamino)-lH-pyrazole-4-carboxamide]"
6,176,"N#CCC1(n2cc(C(N)=O)c(Nc3ccccc3)n2)CCN(C(=O)c2cc3ccccc3[nH]2)CC1 [Example 34-22, 1-[4-(cyanomethyl)-1-(1H-indol-2-ylcarbonyl)piperidin-4-yl]-3-(phenylamino)-1H-pyrazole-4-carboxamide]"
14,230,"CN(C)c1ccc(C(=O)N2CCC(CC#N)(n3cc(C(N)=O)c(Nc4ccccc4)n3)CC2)cc1 [Example 34-23, 1-[4-(cyanomethyl)-1-{[4-(dimethylamino)phenyl]carbonyl}piperidin-4-yl]-3-(phenylamino)-lH-pyrazole-4-carboxamide]"
7,84,"COc1ccc(CC(=O)N2CCC(CC#N)(n3cc(C(N)=O)c(Nc4ccccc4)n3)CC2)cc1 [Example 34-24, 1-{4-(cyanomethyl)-1-[(4-methoxyphenyl)acetyl]piperidin-4-yl}-3-(phenylamino)-1H-pyrazole-4-carboxamide]"
32,448,"COc1ccc(C(=O)N2CCC(CC#N)(n3cc(C(N)=O)c(Nc4ccccc4)n3)CC2)cc1OC [Example 34-27, 1-{4-(cyanomethyl)-l-[(3,4-dimethoxyphenyl)carbonyl]piperidin-4-yl}-3-(phenylamino)-1H-pyrazole-4-carboxamide]"

# Source: US9328099B2, “Cyanomethylpyrazole carboxamides as janus kinase inhibitors” (Merck Sharp & Dohme Corp., priority 2011, dated 2016)
